Test: Mannequin head curl retention expert evaluation (air dried hair)
Conditions: through 20 washes
Excerpt: Mannequin Head Odor and Curl Expert Evaluation
Control perm: Omniperm™ with ammonium thioglycolate, available from Zotos Professional®, including both the reducing and oxidizing steps.
Curl Retention Assessments:
Treatment and expert sensory performed by licensed cosmetologist with 20+ years expertise in perms. All evaluations shown in graphs were done with hair in dry state, after air drying. Photos are available for most time points as well.

C[n+]1cccc(NCCS)c1.[I-] [3-((2-mercaptoethyl)amino)-1-methylpyridin-1-ium iodide]
Curl retention compared with benchmark control perm: equal curl retention

— patent US12398104B2, “Odorless thiols for permanent waving, straightening and depilatory applications” (The Procter & Gamble Company, priority 2017, dated 2025)
